Data as given in patent publication US9376371B2, “Triphenylamine derivative, method for manufacturing the same, and electrophotographic photosensitive member” (KYOCERA DOCUMENT SOLUTIONS INC., priority 2013, dated 2016).

Columns and labels:
[1] = Evaluation of solubility in tetrahydrofuran; format: physicochemical; settings: 25° C., {100/(100+X)}×100
Method: The thus obtained triphenylamine derivatives HTM-1 to HTM-14 each as the hole transport material were evaluated for the solubility. A small amount of tetrahydrofuran was added to 100 mg of each triphenylamine derivative under the temperature of 25° C. Then, the resulting sample was vibrated and left to stand. This process was repeated to measure the added amount X (mg) of tetrahydrofuran dissolved in the triphenylamine derivative to saturation. With the added amount X, the equation below gives the solubility. Solubility (%)={100/(100+X)}×100 <Evaluation of Ionization Potentials>

[2] = Evaluation of ionization potential (AC-1 ultraviolet photoelectron analyzer); format: physicochemical; settings: atmosphere type ultraviolet photoelectron analyzing apparatus AC-1
Source text: The respective triphenylamine derivatives HTM-1 to HTM-14 were each evaluated for the ionization potential. An atmosphere type ultraviolet photoelectron analyzing apparatus (AC-1 manufactured by Riken Keiki Co., Ltd.) was used to measure the ionization potential.

SMILES | THF Solubility [1] [%] | Ionization Potential [2] [eV]
CCOc1ccc(N(c2ccc(/C=C/C=C/c3ccccc3)cc2)c2ccc(/C=C/C=C/c3ccccc3)cc2)c(C)c1 [HTM-7] | 25.8 | 5.39
Cc1ccc(N(c2ccc(/C=C/C=C/c3ccccc3)cc2)c2ccc(/C=C/C=C/c3ccccc3)cc2)c(C)c1 [HTM-9] | 12.3 | 5.46
C(/C=C/c1ccc(N(c2ccc(/C=C/C=C/c3ccccc3)cc2)c2ccc(Oc3ccccc3)cc2)cc1)=C\c1ccccc1 [HTM-8] | 21.0 | 5.48
COc1cccc(N(c2ccc(/C=C/C=C/c3ccccc3)cc2)c2ccc(/C=C/C=C/c3ccccc3)cc2)c1 [HTM-13] | 6.1 | 5.45
CCCCOc1ccccc1N(c1ccc(/C=C/C=C/c2ccccc2)cc1)c1ccc(/C=C/C=C/c2ccccc2)cc1 [HTM-3] | 24.1 | 5.39
COc1ccc(N(c2ccc(/C=C/C=C/c3ccccc3)cc2)c2ccc(/C=C/C=C/c3ccccc3)cc2)c(OC)c1 [HTM-5] | 20.0 | 5.33
Cc1cccc(C)c1N(c1ccc(/C=C/C=C/c2ccccc2)cc1)c1ccc(/C=C/C=C/c2ccccc2)cc1 [HTM-11] | 11.4 | 5.55
COc1ccc(N(c2ccc(/C=C/C=C/c3ccccc3)cc2)c2ccc(/C=C/C=C/c3ccccc3)cc2)c(C)c1 [HTM-6] | 24.5 | 5.38
CCCCc1ccc(N(c2ccc(/C=C/C=C/c3ccccc3)cc2)c2ccc(/C=C/C=C/c3ccccc3)cc2)cc1 [HTM-10] | 17.8 | 5.42
CCOc1cccc(C)c1N(c1ccc(/C=C/C=C/c2ccccc2)cc1)c1ccc(/C=C/C=C/c2ccccc2)cc1 [HTM-2] | 23.5 | 5.37
COc1ccccc1N(c1ccc(/C=C/C=C/c2ccccc2)cc1)c1ccc(/C=C/C=C/c2ccccc2)cc1 [HTM-14] | 6.3 | 5.43
COc1ccc(N(c2ccc(/C=C/C=C/c3ccccc3)cc2)c2ccc(/C=C/C=C/c3ccccc3)cc2)cc1 [HTM-12] | 7.5 | 5.43
CCOc1ccccc1N(c1ccc(/C=C/C=C/c2ccccc2)cc1)c1ccc(/C=C/C=C/c2ccccc2)cc1 [HTM-1] | 25.0 | 5.38
CCOc1cc(C)ccc1N(c1ccc(/C=C/C=C/c2ccccc2)cc1)c1ccc(/C=C/C=C/c2ccccc2)cc1 [HTM-4] | 22.8 | 5.39
